Assay: xn = mol fraction of the nth substance listed
Conditions: 96.7 kPa

OCC(F)(F)F + CC[n+]1ccn(C)c1.O=S(=O)([N-]S(=O)(=O)C(F)(F)F)C(F)(F)F
viscosity [mPa·s]
Conditions | 293.15 K | 298.15 K | 303.15 K | 308.15 K | 313.15 K | 318.15 K | 323.15 K | 328.15 K | 333.15 K
x1 = 0.051 | – | 30.2 | 25.7 | 22 | – | 16.5 | 14.5 | 12.7 | 11.4
x1 = 0.099 | 32.5 | 27.4 | 23.4 | 20 | 17.6 | 15.2 | – | 11.8 | 10.7
x1 = 0.204 | 25.7 | 23.1 | 19.6 | – | 14.3 | 13.1 | 11.5 | 10.1 | 9.3
x1 = 0.303 | – | 17.7 | 15.3 | 13.5 | 11.8 | 10.3 | 9.4 | 8.4 | 7.6
x1 = 0.396 | – | 13.5 | 11.7 | 10.3 | – | 8.2 | 7.3 | 6.8 | –
x1 = 0.599 | 8.3 | 7.3 | – | 5.8 | 5.2 | – | 4.3 | 3.92 | 3.59
x1 = 0.799 | – | 3.53 | 3.16 | 2.96 | 2.68 | 2.47 | 2.27 | – | 1.95
x1 = 1 | 2.01 | 1.8 | 1.59 | – | 1.26 | 1.1 | 1.01 | 0.93 | –

CC(=O)[O-].CC[n+]1ccn(C)c1 + OCC(F)(F)F
x2 = 0
Conditions | viscosity [mPa·s]
293.15 K | 181
298.15 K | 135
303.15 K | 100
308.15 K | 76
323.15 K | 38.5
328.15 K | 31.4
333.15 K | 26

OCC(F)(F)F + CC(=O)[O-].CC[n+]1ccn(C)c1
viscosity [mPa·s]
Conditions | 293.15 K | 298.15 K | 303.15 K | 308.15 K | 313.15 K | 318.15 K | 323.15 K | 328.15 K | 333.15 K
x1 = 0.048 | 157 | – | – | 67 | 53 | 42.2 | 34.3 | 28.4 | 23.7
x1 = 0.103 | 138 | 104 | 79 | 61 | 48.5 | 39.2 | 31.6 | 26.5 | –
x1 = 0.204 | – | 75 | 59 | – | 37.7 | 30.6 | 25.6 | 21.4 | 18.2
x1 = 0.298 | 69 | 54 | 42.9 | 34.7 | 28.5 | 23.7 | 20 | – | 14.5
x1 = 0.402 | 46.1 | – | – | 24.2 | 21.1 | 17.6 | – | 12.9 | 11.3
x1 = 0.603 | – | 14.6 | 12.4 | 11 | 9.5 | – | 7.4 | 6.5 | –
x1 = 0.801 | 6.2 | 5.5 | 4.85 | 4.32 | – | 3.54 | – | 2.94 | 2.69
x1 = 1 | 2.01 | 1.8 | 1.59 | 1.41 | – | 1.1 | 1.01 | 0.93 | –

CC[n+]1ccn(C)c1.O=S(=O)([N-]S(=O)(=O)C(F)(F)F)C(F)(F)F + OCC(F)(F)F
x2 = 0
Conditions | viscosity [mPa·s]
293.15 K | 39.2
298.15 K | 32.9
303.15 K | 27.8
318.15 K | 17.6
323.15 K | 15.4
328.15 K | 13.6
333.15 K | 12.2

Source: a compilation of properties of binary mixtures (doi:10.1016/j.jct.2023.107038)
